Our source for the remaining activity values is patent publication US8853420B2, “Compounds” (Boehringer Ingelheim International GmbH, priority 2008, dated 2014).

What is called remaining activity is the activity still measured, relative to the control.

This experiment concerns the target T1, Xenopus laevis Aurora B/INCENP complex (Xenopus laevis, UniProt Q6DE08).
T1 construct: equipped at the N-terminal position with a GST tag (amino acids 60-361); GST (N, cleaved yes); made in house; host or cells: E. coli BL21 (DE3)
As to the kind of experiment: Aurora-B kinase assay (radioactive enzyme inhibition assay). As to conditions: test substance at 1 μM; percentage of the positive control (maximum value without test substance). It counts as biochemical.

T1 sequence (Q6DE08 60-361): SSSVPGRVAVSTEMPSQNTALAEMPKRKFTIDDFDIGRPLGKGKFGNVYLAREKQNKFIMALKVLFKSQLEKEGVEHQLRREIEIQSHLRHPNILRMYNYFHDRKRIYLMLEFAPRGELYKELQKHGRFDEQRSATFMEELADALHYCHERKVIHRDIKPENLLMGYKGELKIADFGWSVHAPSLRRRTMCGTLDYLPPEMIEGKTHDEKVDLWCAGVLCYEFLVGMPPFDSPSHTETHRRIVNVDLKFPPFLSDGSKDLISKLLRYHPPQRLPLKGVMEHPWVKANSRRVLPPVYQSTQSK
T1 sequence (O13024 790-847 partner limits assumed): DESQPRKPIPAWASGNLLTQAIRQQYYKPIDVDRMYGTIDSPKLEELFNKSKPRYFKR

For `O=C(C#Cc1ccc2c(c1)NC(=O)/C2=C(\Nc1ccc(CN2CCCC2)cc1)c1ccccc1)Nc1ccccc1F` [Example 170], the remaining activity at 1 µM was 1.39%. The same measure for `C[C@H](CO)NC(=O)C#Cc1ccc2c(c1)NC(=O)/C2=C(\Nc1ccc(CN(C)C)cc1)c1ccccc1` [Example 171]: 3.39%; for `C[C@H](CO)NC(=O)C#Cc1ccc2c(c1)NC(=O)/C2=C(\Nc1ccc(CN2CCCC2)cc1)c1ccccc1` [Example 172]: 3.21%. The same measure for `O=C(C#Cc1ccc2c(c1)NC(=O)/C2=C(\Nc1ccc(CN2CCCC2)cc1)c1ccccc1)Nc1cccc(Cl)c1` [Example 173]: 3.68%. In the case of `O=C(C#Cc1ccc2c(c1)NC(=O)/C2=C(\Nc1ccc(CN2CCCC2)cc1)c1ccccc1)Nc1ccccc1` [Example 174], the remaining activity at 1 µM amounted to 2.67%. Regarding `CCNC(=O)C#Cc1ccc2c(c1)NC(=O)/C2=C(\Nc1ccc(CN2CCCC2)cc1)c1ccccc1` [Example 175], the remaining activity at 1 µM was found to be 3.04%. On to `CCNC(=O)C#Cc1ccc2c(c1)NC(=O)/C2=C(\Nc1ccc(CN(C)C)c(F)c1)c1ccccc1` [Example 176], for which the remaining activity at 1 µM stood at 1.65%. As for `CCNC(=O)C#Cc1ccc2c(c1)NC(=O)/C2=C(\Nc1ccc(CN(C)C)c(Cl)c1)c1ccccc1` [Example 177], the remaining activity at 1 µM worked out at 1.83%.
